Laboratory results taken from patent publication US20260042753A1 (Merck Patent GmbH, priority 2019, published 2026).
pIC50: −log10 of the molar value. Where two headings read alike, the source gives them in different places.

Columns and labels:
[1] = biological target: mutant cKIT (560-576 and V654A) in GIST430/654 cell line (Homo sapiens (Human), UniProt P10721, DEL560-576/V654A); experiment: Cellular testing of cKIT mutant inhibitors: phospho-Y307-cKIT Luminex assay in GIST430/654 cells; type: cell-based; details: read-out: GIST 430/654 IC50
Chain of mutant cKIT (560-576 and V654A) in GIST430/654 cell line (P10721 other isoform, or with tags, fused parts or gaps V654A/del 1-25/del 560-576 limits assumed): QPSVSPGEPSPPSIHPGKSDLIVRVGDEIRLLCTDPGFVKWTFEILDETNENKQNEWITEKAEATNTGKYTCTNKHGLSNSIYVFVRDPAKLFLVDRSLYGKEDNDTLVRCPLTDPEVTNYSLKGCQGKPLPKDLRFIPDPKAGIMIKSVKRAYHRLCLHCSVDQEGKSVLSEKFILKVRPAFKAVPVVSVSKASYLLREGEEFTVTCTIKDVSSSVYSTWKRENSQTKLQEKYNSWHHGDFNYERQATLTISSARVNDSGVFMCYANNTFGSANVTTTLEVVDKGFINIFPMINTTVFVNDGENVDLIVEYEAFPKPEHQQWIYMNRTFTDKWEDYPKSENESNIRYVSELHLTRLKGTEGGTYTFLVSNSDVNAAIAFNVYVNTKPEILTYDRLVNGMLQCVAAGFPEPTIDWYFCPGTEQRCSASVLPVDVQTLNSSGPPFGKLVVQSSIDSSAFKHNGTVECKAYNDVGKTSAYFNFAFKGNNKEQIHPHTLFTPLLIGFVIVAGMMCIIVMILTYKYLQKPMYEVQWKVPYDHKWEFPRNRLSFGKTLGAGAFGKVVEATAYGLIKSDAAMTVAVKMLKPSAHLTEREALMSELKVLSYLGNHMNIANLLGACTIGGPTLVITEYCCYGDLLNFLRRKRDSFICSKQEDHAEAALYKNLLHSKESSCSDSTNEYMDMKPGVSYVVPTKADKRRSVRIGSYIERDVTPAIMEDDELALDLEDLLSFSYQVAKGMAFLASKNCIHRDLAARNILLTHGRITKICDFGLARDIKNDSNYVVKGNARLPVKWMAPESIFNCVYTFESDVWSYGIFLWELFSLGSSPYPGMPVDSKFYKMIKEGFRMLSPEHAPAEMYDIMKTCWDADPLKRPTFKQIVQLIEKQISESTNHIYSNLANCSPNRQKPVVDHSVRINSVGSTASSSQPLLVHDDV
How it was run: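 GIST430/654 cells carrying constitutively active cKIT (Δ560-576/V654A) were grown with 100 nM imatinib, then treated with serially diluted compound for 45 min. Lysates were captured on anti-total-cKIT Luminex beads overnight at 4 °C and probed for phospho-Y307-cKIT. IC50 was fitted from percent of 0.3% DMSO control.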

[2] = biological target: c-Kit(V654A) (Homo sapiens, UniProt P10721, V654A); experiment: c-Kit(V654A) assay; type: biochemical
How it was run: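 Radiometric filter-binding read-out: after 3% phosphoric acid stop, peptide-incorporated 33P on filtermat scintillation-counted. Enzyme: human c-Kit V654A, residues 544–end, N-terminal GST fusion.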

[3] = Table 1, cKIT autophosphorylation, compounds 45 min
[4] = Table 2, corresponding triazole derivatives

Row | SMILES | pIC50 [1, 3] | pIC50 ([2]; Table 1, 200 μM ATP) | pIC50 [1, 4] | pIC50 [2, 4]
1 | COCCOc1cc2[nH]nc(-c3cc(-c4ccc(C(=O)N5CC[C@@H]5C(C)(C)O)nc4)no3)c2cc1F [A119, (5-{5-[5-fluoro-6-(2-methoxy-ethoxy)-1H-indazol-3-yl]-isoxazol-3-yl}-pyridin-2-yl)-[(R)-2-(1-hydroxy-1-methyl-ethyl)-azetidin-1-yl]-methanone] | 6.47 | 7.92 |  | 
2 | COCCOc1cc2[nH]nc(-c3cc(-c4ccc(C(=O)N5CCC[C@H]5CO)cc4)no3)c2cc1F [drawing 57, reference compound] |  |  | 6.04 | 8.07
3 | COCCOc1cc2[nH]nc(-c3cc(-c4ccc(C(=O)N(C)C)cc4)no3)c2cc1F [A20, 4-{5-[5-fluoro-6-(2-methoxyethoxy)-1H-indazol-3-yl]-1,2-oxazol-3-yl}-N,N-dimethylbenzamide] | 7.32 | 8.77 |  | 
4 | COCCOc1cc2[nH]nc(-c3cc(-c4ccc(C(=O)N5CC(N(C)C)C5)cc4)no3)c2cc1F [A76, 1-(4-{5-[5-fluoro-6-(2-methoxyethoxy)-1H-indazol-3-yl]-1,2-oxazol-3-yl}benzoyl)-N,N-dimethylazetidin-3-amine] | 7.10 | 8.70 |  | 
5 | COCCOc1cc2[nH]nc(-c3cc(-c4ccc(C)nc4)no3)c2cc1Cl [A13, 5-chloro-6-(2-methoxyethoxy)-3-[3-(6-methylpyridin-3-yl)-1,2-oxazol-5-yl]-1H-indazole] | 6.52 | 7.96 |  | 
6 | COCCOc1cc2[nH]nc(-c3cc(-c4ccc(C(=O)N5C[C@@H]6C[C@H]5CO6)cc4)no3)c2cc1F [A162, 5-fluoro-6-(2-methoxyethoxy)-3-(3-{4-[(1S,4S)-2-oxa-5-azabicyclo[2.2.1]heptane-5-carbonyl]phenyl}-1,2-oxazol-5-yl)-1H-indazole] | 7.36 | 9.19 |  | 
7 | COCCOc1cc2[nH]nc(-c3cc(-c4ccc(C(=O)N5CC6(C5)CS(=O)(=O)C6)cc4)no3)c2cc1F [A151, 6-(4-{5-[5-fluoro-6-(2-methoxyethoxy)-1H-indazol-3-yl]-1,2-oxazol-3-yl}benzoyl)-2lambda6-thia-6-azaspiro[3.3]heptane-2,2-dione] | 6.62 | 9.15 |  | 
8 | COCCOc1cc2[nH]nc(-c3cc(-c4ccc(C(=O)N5CCNCC5)cc4)no3)c2cc1F [A46, 5-fluoro-6-(2-methoxyethoxy)-3-{3-[4-(piperazine-1-carbonyl)phenyl]-1,2-oxazol-5-yl}-1H-indazole] | 7.24 | 9.02 |  | 
9 | COCCOc1cc2[nH]nc(-c3cc(-c4ccc(C(=O)N5CCOC[C@H]5CO)cc4)no3)c2cc1Cl [A67, (4-{5-[5-chloro-6-(2-methoxy-ethoxy)-1H-indazol-3-yl]-isoxazol-3-yl}-phenyl)-((R)-3-hydroxymethyl-morpholin-4-yl)-methanone] | 7.03 | 9.06 |  | 
10 | COCCOc1cc2[nH]nc(-c3cc(-c4ccc(C(=O)N5CC6CC(C5)O6)cc4)no3)c2cc1F [A161, 5-fluoro-6-(2-methoxyethoxy)-3-[3-(4-{6-oxa-3-azabicyclo[3.1.1]heptane-3-carbonyl}phenyl)-1,2-oxazol-5-yl]-1H-indazole] | 7.40 | 9.35 |  | 
11 | COc1cc2[nH]nc(-c3cc(-c4ccc(C(=O)N5CCC[C@H]5CS(C)(=O)=O)cc4)no3)c2cc1F [A117, 5-fluoro-3-(3-{4-[(2S)-2-(methanesulfonylmethyl)pyrrolidine-1-carbonyl]phenyl}-1,2-oxazol-5-yl)-6-methoxy-1H-indazole] | 7.00 | 8.44 |  | 
12 | COCCOc1cc2[nH]nc(-c3cc(-c4ccc(C(=O)N5CC[C@H]6CNC(=O)[C@H]65)cc4)no3)c2cc1F (relative stereo) [A89, (cis)-1-(4-{5-[5-fluoro-6-(2-methoxyethoxy)-1H-indazol-3-yl]-1,2-oxazol-3-yl}benzoyl)-octahydropyrrolo[3,4-b]pyrrol-6-one] | 6.49 | 9.24 |  | 
13 | COCCOc1cc2[nH]nc(-c3cc(-c4ccc(C(=O)N5CCOC[C@@H]5CO)cc4)no3)c2cc1Cl [A66, (4-{5-[5-chloro-6-(2-methoxy-ethoxy)-1H-indazol-3-yl]-isoxazol-3-yl}-phenyl)-((S)-3-hydroxymethyl-morpholin-4-yl)-methanone] | 7.28 | 9.19 |  | 
14 | COCCOc1cc2[nH]nc(-c3cc(-c4ccc(C(=O)N5CC(N6CCOCC6)C5)nc4)no3)c2cc1F [A69, (5-{5-[5-fluoro-6-(2-methoxy-ethoxy)-1H-indazol-3-yl]-isoxazol-3-yl}-pyridin-2-yl)-(3-morpholin-4-yl-azetidin-1-yl)-methanone] | 6.72 | 7.70 |  | 
15 | COCCOc1cc2[nH]nc(-c3cn(-c4ccc(C(=O)N5CC(F)C5)cc4)nn3)c2cc1F [reference compound] |  |  | 6.24 | 7.96
16 | COCCOc1ccc2c(-c3cn(-c4ccc(C(=O)N5CCN(C)C[C@@H]5C)cc4)nn3)n[nH]c2c1 [reference compound] |  |  | 6.49 | 8.21
17 | COCCOc1cc2[nH]nc(-c3cc(-c4ccc(C(=O)N5CC[C@H]5C(C)(C)O)cc4)on3)c2cc1F [A148, (4-{3-[5-fluoro-6-(2-methoxy-ethoxy)-1H-indazol-3-yl]-isoxazol-5-yl}-phenyl)-[(S)-2-(1-hydroxy-1-methyl-ethyl)-azetidin-1-yl]-methanone] | 7.15 | 8.74 |  | 
18 | COCCOc1cc2[nH]nc(-c3cc(-c4ccc(C(=O)N5CCC6(CC5)COC6)cc4)no3)c2cc1F [A60, 7-(4-{5-[5-fluoro-6-(2-methoxyethoxy)-1H-indazol-3-yl]-1,2-oxazol-3-yl}benzoyl)-2-oxa-7-azaspiro[3.5]nonane] | 7.55 | 9.36 |  | 
19 | COCCOc1cc2[nH]nc(-c3cc(-c4ccc(C(=O)N5Cc6cnn(C)c6C5)cc4)no3)c2cc1F [A213, 5-fluoro-6-(2-methoxyethoxy)-3-[3-(4-{1-methyl-1H,4H,5H,6H-pyrrolo[3,4-c]pyrazole-5-carbonyl}phenyl)-1,2-oxazol-5-yl]-1H-indazole] | 7.32 | 9.31 |  | 
20 | COCCOc1cc2[nH]nc(-c3cc(-c4ccc(-n5ncccc5=O)cc4)no3)c2cc1F [A142, 2-(4-{5-[5-fluoro-6-(2-methoxyethoxy)-1H-indazol-3-yl]-1,2-oxazol-3-yl}phenyl)-2,3-dihydropyridazin-3-one] | 7.12 | 8.22 |  | 
21 | COCCOc1cc2[nH]nc(-c3cc(-c4ccc(C(=O)N5CC[C@@H]5C(C)(C)O)cc4)on3)c2cc1F [A147, (4-{3-[5-fluoro-6-(2-methoxy-ethoxy)-1H-indazol-3-yl]-isoxazol-5-yl}-phenyl)-[(R)-2-(1-hydroxy-1-methyl-ethyl)-azetidin-1-yl]-methanone] | 7.17 | 8.66 |  | 
22 | COCCOc1cc2[nH]nc(-c3cc(-c4ccc(C(=O)N(C)C5CC5)cc4)no3)c2cc1F [A31, N-cyclopropyl-4-{5-[5-fluoro-6-(2-methoxyethoxy)-1H-indazol-3-yl]-1,2-oxazol-3-yl}-N-methylbenzamide] | 7.46 | 8.96 |  | 
23 | COCCOc1cc2[nH]nc(-c3cc(-c4ccc(N5CCCS5(=O)=O)cc4)no3)c2cc1F [A138, 2-(4-{5-[5-fluoro-6-(2-methoxyethoxy)-1H-indazol-3-yl]-1,2-oxazol-3-yl}phenyl)-1lambda6,2-thiazolidine-1,1-dione] | 6.80 | 8.19 |  | 
24 | COCCOc1cc2[nH]nc(-c3cc(-c4ccc(C(=O)N5CC(C#N)C5)cc4)no3)c2cc1F [A28, 1-(4-{5-[5-fluoro-6-(2-methoxyethoxy)-1H-indazol-3-yl]-1,2-oxazol-3-yl}benzoyl)azetidine-3-carbonitrile] | 7.41 | 8.70 |  | 
25 | COCCOc1cc2[nH]nc(-c3cc(-c4ccc(C(=O)N5CC[C@@H](F)C5)nc4)no3)c2cc1F [A100, 5-fluoro-3-(3-{6-[(3R)-3-fluoropyrrolidine-1-carbonyl]pyridin-3-yl}-1,2-oxazol-5-yl)-6-(2-methoxyethoxy)-1H-indazole] | 6.47 | 8.24 |  | 
26 | COCCOc1cc2[nH]nc(-c3cc(-c4ccc(C(=O)N5CCC[C@H]5C(C)(C)O)cc4)no3)c2cc1F [A5, 2-[(2S)-1-(4-{5-[5-fluoro-6-(2-methoxyethoxy)-1H-indazol-3-yl]-1,2-oxazol-3-yl}benzoyl)pyrrolidin-2-yl]propan-2-ol] | 7.70 | 9.26 |  | 
27 | COCCOc1cc2[nH]nc(-c3cc(-c4ccc(C5CCN(C)CC5(C)C)cc4)no3)c2cc1F (stereo not shown) [A231, 5-fluoro-6-(2-methoxy-ethoxy)-3-{3-[4-(1,3,3-trimethyl-piperidin-4-yl)-phenyl]-isoxazol-5-yl}-1H-indazole] | 7.28 | 9.21 |  | 
28 | COCCOc1cc2[nH]nc(-c3cc(-c4ccc(C(=O)N5CC(N6CCOCC6)C5)cc4)no3)c2cc1F [A53, 5-fluoro-6-(2-methoxyethoxy)-3-(3-{4-[3-(morpholin-4-yl)azetidine-1-carbonyl]phenyl}-1,2-oxazol-5-yl)-1H-indazole] | 7.82 | 8.85 |  | 
29 | COCCOc1cc2[nH]nc(-c3cc(-c4ccc(C(=O)N5C[C@H]6COC[C@H]6C5)c(C)c4)no3)c2cc1F [A70, (4-{5-[5-fluoro-6-(2-methoxy-ethoxy)-1H-indazol-3-yl]-isoxazol-3-yl}-2-methyl-phenyl)-(cis)-tetrahydro-furo[3,4-c]pyrrol-5-yl-methanone] | 7.09 | 8.68 |  | 
